Data published in patent US8802597B2, “Herbicidal pyrimidines” (E I du Pont de Nemours and Company, priority 2003, dated 2014).
Read-outs that look alike come from different tables or passages of the source.

Experiments:
Format in all cases: in vivo
[1] = tested on: Surinam grass (Brachiaria decumbens); assay: Test B pre/postemergence; settings: Urochloa decumbens; for pest or weed control at 62 g/ha: 62 g ai/ha; for pest or weed control at 250 g/ha: 250 g ai/ha
Summary of the method: (§1)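 Scores reflect visual comparison with untreated controls, where 0 means no effect and 100 complete control. Plants stayed 13 to 15 days in the greenhouse after pre- or postemergence treatment with compounds carried in a non-phytotoxic solvent and surfactant.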

[2] = tested on: barnyardgrass (Echinochloa crus-galli); assay: Test B pre/postemergence; settings: Echinochloa crus-galli; for pest or weed control at 62 g/ha: 62 g ai/ha; for pest or weed control at 250 g/ha: 250 g ai/ha
Summary of the method: as §1

[3] = tested on: cocklebur (Xanthium strumarium); assay: Test B pre/postemergence; settings: Xanthium strumarium; for pest or weed control at 62 g/ha: 62 g ai/ha; for pest or weed control at 250 g/ha: 250 g ai/ha
Summary of the method: as §1

corn (Zea mays) = assay: Test B pre/postemergence; settings: Zea mays; for Corn plant response rating (crop injury, 0 = no effect, 100 = complete kill) at 250 g/ha: 250 g ai/ha
Summary of the method: as §1

[4] = tested on: crabgrass (Digitaria sanguinalis); assay: Test B pre/postemergence; settings: Digitaria sanguinalis; for pest or weed control at 62 g/ha: 62 g ai/ha; for pest or weed control at 250 g/ha: 250 g ai/ha
Summary of the method: as §1

[5] = tested on: giant foxtail (Setaria faberii); assay: Test B pre/postemergence; settings: Setaria faberi; for pest or weed control at 62 g/ha: 62 g ai/ha; for pest or weed control at 250 g/ha: 250 g ai/ha
Summary of the method: as §1

[6] = tested on: lambsquarters (Chenopodium album); assay: Test B pre/postemergence; settings: Chenopodium album; for pest or weed control at 62 g/ha: 62 g ai/ha; for pest or weed control at 250 g/ha: 250 g ai/ha
Summary of the method: as §1

[7] = tested on: morningglory (Ipomoea coccinea); assay: Test B pre/postemergence; settings: Ipomoea; for pest or weed control at 62 g/ha: 62 g ai/ha; for pest or weed control at 250 g/ha: 250 g ai/ha
Summary of the method: as §1

[8] = tested on: pigweed (Amaranthus retroflexus); assay: Test B pre/postemergence; settings: Amaranthus retroflexus; for pest or weed control at 62 g/ha: 62 g ai/ha; for pest or weed control at 250 g/ha: 250 g ai/ha
Summary of the method: as §1

[9] = tested on: velvetleaf (Abutilon theophrasti); assay: Test B pre/postemergence; settings: Abutilon theophrasti; for pest or weed control at 62 g/ha: 62 g ai/ha; for pest or weed control at 250 g/ha: 250 g ai/ha
Summary of the method: as §1

[10] = tested on: wheat (Triticum aestivum); assay: Test B pre/postemergence; settings: Triticum aestivum; for plant injury at 62 g/ha: 62 g ai/ha; for plant injury at 250 g/ha: 250 g ai/ha
Summary of the method: as §1

[11] = tested on: blackgrass (Alopecurus myosuroides); assay: Test B postemergence; settings: Alopecurus myosuroides, post-emergence
Summary of the method: as §1

wild oat (Avena fatua) = assay: Test B postemergence; settings: Avena fatua, post-emergence
Summary of the method: as §1

[12] = tested on: barnyardgrass (Echinochloa crus-galli); assay: Test B flooded paddy test; settings: Echinochloa crus-galli, Flood, 1000 g ai/ha; scale 0 (no effect) to 100 (complete control); read-out: Plant response rating, Barnyardgrass
Summary of the method: (§2)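 Rice, umbrella sedge, duck salad and barnyardgrass grown to 2-leaf stage under flooded paddy conditions and treated with formulated test chemicals. Kept in greenhouse 13–15 days, then visually rated against untreated controls on a 0–100 scale (0 no effect, 100 complete control).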

[13] = tested on: duck salad (Heteranthera limosa); assay: Test B flooded paddy test; settings: Heteranthera limosa, Flood, 1000 g ai/ha; scale 0 to 100; read-out: Plant response rating, Ducksalad
Summary of the method: as §2

rice (Oryza sativa) = assay: Test B flooded paddy test; settings: Oryza sativa, Flood, 1000 g ai/ha; scale 0 to 100; read-out: Plant response rating, Rice
Summary of the method: as §2

[14] = tested on: umbrella sedge (Cyperus difformis); assay: Test B flooded paddy test; settings: Cyperus difformis, Flood, 1000 g ai/ha; scale 0 to 100; read-out: Plant response rating, Sedge, Umbrella
Summary of the method: as §2

[15] = pre-emergence, Preemergence, scale 0 to 100 (0 no effect, 100 complete control), read-out: Plant response rating, Barnyardgrass
[16] = pre-emergence, Preemergence, scale 0 to 100 (0 no effect, 100 complete control), read-out: Plant response rating, Wheat

Q: What does the source list for `CCOC(=O)c1nc(C2CC2)nc(N)c1Cl` [Compound 4, ethyl 6-amino-5-chloro-2-cyclopropyl-4-pyrimidinecarboxylate]?
A: pest or weed control at 62 g/ha ([1]; post-emergence, Postemergence, scale 0 to 100 (0 no effect, 100 complete control), read-out: Surinam Grass plant response rating): 90%; pest or weed control at 250 g/ha ([1]; post-emergence, Postemergence, scale 0 to 100, read-out: Plant response rating, Surinam Grass): 90%; pest or weed control at 250 g/ha ([1]; pre-emergence, Preemergence, scale 0 to 100 (0 no effect, 100 complete control), read-out: Plant response rating, Surinam Grass): 90%; pest or weed control at 62 g/ha ([1]; pre-emergence, Preemergence, scale 0 to 100, 0 no effect, 100 complete control, read-out: Plant response rating, Surinam Grass): 40%; pest or weed control at 62 g/ha ([2]; post-emergence, Postemergence, scale 0 to 100 (0 no effect, 100 complete control), read-out: Barnyardgrass plant response rating): 70%; pest or weed control at 250 g/ha ([2]; post-emergence, Postemergence, scale 0 to 100, read-out: Plant response rating, Barnyardgrass): 90%; pest or weed control at 62 g/ha [2, 15]: 30%; pest or weed control at 250 g/ha [2, 15]: 90%; pest or weed control at 62 g/ha ([3]; post-emergence, Postemergence, scale 0 to 100 (0 no effect, 100 complete control), read-out: Cocklebur plant response rating): 90%; pest or weed control at 250 g/ha ([3]; post-emergence, Postemergence, scale 0 to 100, read-out: Plant response rating, Cocklebur): 100%; pest or weed control at 62 g/ha ([3]; pre-emergence, Preemergence, scale 0 to 100, 0 no effect, 100 complete control, read-out: Plant response rating, Cocklebur): 80%; pest or weed control at 250 g/ha ([3]; pre-emergence, Preemergence, scale 0 to 100 (0 no effect, 100 complete control), read-out: Plant response rating, Cocklebur): 100%; plant injury at 62 g/ha (corn (Zea mays); post-emergence, Postemergence, 62 g ai/ha, scale 0 to 100 (0 no effect, 100 complete control), read-out: Corn plant response rating): 50%; Corn plant response rating (crop injury, 0 = no effect, 100 = complete kill) at 250 g/ha (corn (Zea mays); post-emergence, Postemergence, scale 0 to 100): 90%; Corn plant response rating (crop injury, 0 = no effect, 100 = complete kill) at 62 g/ha (corn (Zea mays); pre-emergence, Preemergence, 62 g ai/ha, scale 0 to 100, 0 no effect, 100 complete control): 0%; Corn plant response rating (crop injury, 0 = no effect, 100 = complete kill) at 250 g/ha (corn (Zea mays); pre-emergence, Preemergence, scale 0 to 100 (0 no effect, 100 complete control)): 80%; pest or weed control at 62 g/ha ([4]; post-emergence, Postemergence, scale 0 to 100 (0 no effect, 100 complete control), read-out: Crabgrass plant response rating): 80%; pest or weed control at 250 g/ha ([4]; post-emergence, Postemergence, scale 0 to 100, read-out: Plant response rating, Crabgrass): 90%; pest or weed control at 62 g/ha ([4]; pre-emergence, Preemergence, scale 0 to 100, 0 no effect, 100 complete control, read-out: Plant response rating, Crabgrass): 70%; pest or weed control at 250 g/ha ([4]; pre-emergence, Preemergence, scale 0 to 100 (0 no effect, 100 complete control), read-out: Plant response rating, Crabgrass): 90%; pest or weed control at 62 g/ha ([5]; post-emergence, Postemergence, scale 0 to 100 (0 no effect, 100 complete control), read-out: Foxtail, Giant plant response rating): 80%; pest or weed control at 250 g/ha ([5]; post-emergence, Postemergence, scale 0 to 100, read-out: Plant response rating, Foxtail, Giant): 90%; pest or weed control at 250 g/ha ([5]; pre-emergence, Preemergence, scale 0 to 100 (0 no effect, 100 complete control), read-out: Plant response rating, Foxtail, Giant): 80%; pest or weed control at 62 g/ha ([5]; pre-emergence, Preemergence, scale 0 to 100, 0 no effect, 100 complete control, read-out: Plant response rating, Foxtail, Giant): 10%; pest or weed control at 62 g/ha ([6]; post-emergence, Postemergence, scale 0 to 100 (0 no effect, 100 complete control), read-out: Lambsquarters plant response rating): 100%; pest or weed control at 250 g/ha ([6]; post-emergence, Postemergence, scale 0 to 100, read-out: Plant response rating, Lambsquarters): 100%; pest or weed control at 62 g/ha ([6]; pre-emergence, Preemergence, scale 0 to 100, 0 no effect, 100 complete control, read-out: Plant response rating, Lambsquarters): 90%; pest or weed control at 250 g/ha ([6]; pre-emergence, Preemergence, scale 0 to 100 (0 no effect, 100 complete control), read-out: Plant response rating, Lambsquarters): 100%; pest or weed control at 62 g/ha ([7]; post-emergence, Postemergence, scale 0 to 100 (0 no effect, 100 complete control), read-out: Morningglory plant response rating): 90%; pest or weed control at 250 g/ha ([7]; post-emergence, Postemergence, scale 0 to 100, read-out: Plant response rating, Morningglory): 100%; pest or weed control at 62 g/ha ([7]; pre-emergence, Preemergence, scale 0 to 100, 0 no effect, 100 complete control, read-out: Plant response rating, Morningglory): 60%; pest or weed control at 250 g/ha ([7]; pre-emergence, Preemergence, scale 0 to 100 (0 no effect, 100 complete control), read-out: Plant response rating, Morningglory): 100%; pest or weed control at 62 g/ha ([8]; post-emergence, Postemergence, scale 0 to 100 (0 no effect, 100 complete control), read-out: Pigweed plant response rating): 100%; pest or weed control at 250 g/ha ([8]; post-emergence, Postemergence, scale 0 to 100, read-out: Plant response rating, Pigweed): 100%; pest or weed control at 62 g/ha ([8]; pre-emergence, Preemergence, scale 0 to 100, 0 no effect, 100 complete control, read-out: Plant response rating, Pigweed): 90%; pest or weed control at 250 g/ha ([8]; pre-emergence, Preemergence, scale 0 to 100 (0 no effect, 100 complete control), read-out: Plant response rating, Pigweed): 100%; pest or weed control at 62 g/ha ([9]; post-emergence, Postemergence, scale 0 to 100 (0 no effect, 100 complete control), read-out: Velvetleaf plant response rating): 70%; pest or weed control at 250 g/ha ([9]; post-emergence, Postemergence, scale 0 to 100, read-out: Plant response rating, Velvetleaf): 100%; pest or weed control at 62 g/ha ([9]; pre-emergence, Preemergence, scale 0 to 100, 0 no effect, 100 complete control, read-out: Plant response rating, Velvetleaf): 80%; pest or weed control at 250 g/ha ([9]; pre-emergence, Preemergence, scale 0 to 100 (0 no effect, 100 complete control), read-out: Plant response rating, Velvetleaf): 90%; plant injury at 62 g/ha ([10]; post-emergence, Postemergence, scale 0 to 100 (0 no effect, 100 complete control), read-out: Wheat plant response rating): 40%; plant injury at 250 g/ha ([10]; post-emergence, Postemergence, scale 0 to 100, read-out: Plant response rating, Wheat): 80%; plant injury at 62 g/ha [10, 16]: 50%; plant injury at 250 g/ha [10, 16]: 70%; pest or weed control at 62 g/ha ([11]; 62 g ai/ha, scale 0 to 100 (0 no effect, 100 complete control), read-out: Blackgrass plant response rating): 70%; pest or weed control at 250 g/ha ([11]; 250 g ai/ha, scale 0 to 100, read-out: Plant response rating, Blackgrass): 90%; pest or weed control at 62 g/ha (wild oat (Avena fatua); 62 g ai/ha, scale 0 to 100 (0 no effect, 100 complete control), read-out: Oat, Wild plant response rating): 50%; pest or weed control at 250 g/ha (wild oat (Avena fatua); 250 g ai/ha, scale 0 to 100, read-out: Plant response rating, Oat, Wild): 80%; pest or weed control at 1000 g/ha [12]: 90%; pest or weed control at 1000 g/ha [13]: 100%; plant injury at 1000 g/ha (rice (Oryza sativa)): 80%; pest or weed control at 1000 g/ha [14]: 80%
